Data on 21 compounds can be found in patent publication US11066414B2, “Cot modulators and methods of use thereof” (Gilead Sciences, Inc., priority 2015, dated 2021).

Where two headings read alike, the source gives them in different places.

In one assay the target is Human Cot (Homo sapiens (Human), UniProt P41279). In words: High Throughput Cot Biochemical Assay.
A further assay deals with TNFα. In words: Cot Monocyte TNFα Cell Based Assay.
Where [1] appears, read: IC50 HTRF, Cot HTRF (TR-FRET KinEASE) biochemical assay, 400 μM ATP.
[2] abbreviates: Homo sapiens, Monocyte, read-out: EC50 TNF, LPS-stimulated human monocytes, TNFα TR-FRET.
Setting [3] is: IC50 HTRF, Cot HTRF (TR-FRET) biochemical assay.
[4] abbreviates: Homo sapiens, Monocyte, read-out: EC50 TNF, LPS-stimulated human monocytes, TNFα.

Chain of Human Cot (P41279 30-397): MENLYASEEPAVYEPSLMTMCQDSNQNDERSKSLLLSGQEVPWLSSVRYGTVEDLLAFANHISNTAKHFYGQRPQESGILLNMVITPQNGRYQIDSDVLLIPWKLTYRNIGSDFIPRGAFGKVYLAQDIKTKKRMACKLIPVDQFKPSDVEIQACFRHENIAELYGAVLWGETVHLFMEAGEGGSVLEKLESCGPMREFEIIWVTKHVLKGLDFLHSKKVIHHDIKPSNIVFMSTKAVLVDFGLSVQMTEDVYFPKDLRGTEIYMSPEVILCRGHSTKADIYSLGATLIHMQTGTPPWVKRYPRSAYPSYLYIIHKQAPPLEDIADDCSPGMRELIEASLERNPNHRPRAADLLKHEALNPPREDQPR

For orientation: IC50 means the concentration that gives 50% inhibition. The EC50 is the midpoint of the concentration-response curve. At Human Cot (setting [1]), `Cc1nc(F)ccc1[C@H](Nc1cc(C#N)c2ncc(C#N)c(NCC3(C(F)(F)F)CCC3)c2c1)c1cn(C2(C(F)F)CC2)nn1` [Example 831, (S)-6-(((1-(1-(difluoromethyl)-cyclopropyl)-1H-1,2,3-triazol-4-yl)(6-fluoro-2-methylpyridin-3-yl)methyl)amino)-4-(((1-(trifluoromethyl)cyclobutyl)methyl)-amino)quinoline-3,8-dicarbonitrile] came in with a half-maximal inhibitory concentration (IC50) of 8 nM. For the same compound, in the assay on TNFα (setting [2]), the EC50 is 202 nM.
On Human Cot (setting [3]), `CC(C)(C)CNc1c(C#N)cnc2c(Cl)cc(N[C@@H](c3cccnc3)c3cn(C4COC4)nn3)cc12` [Example 168, (S)-8-chloro-4-(neopentylamino)-6-(((1-(oxetan-3-yl)-1H-1,2,3-triazol-4-yl)(pyridin-3-yl)methyl)amino)quinoline-3-carbonitrile] yielded an IC50 of 6 nM. In addition, in the assay with TNFα (setting [4]), the EC50 is 394 nM.
The like results for `Cc1nc(F)ccc1[C@H](Nc1cc(C#N)c2ncc(C#N)c(NCC(C)(C)c3ccccc3)c2c1)c1cn(C2(C(F)(F)F)CC2)nn1` [Example 614, (S)-6-(((6-fluoro-2-methylpyridin-3-yl)(1-(1-(trifluoromethyl)cyclopropyl)-1H-1,2,3-triazol-4-yl)methyl)amino)-4-((2-methyl-2-phenylpropyl)amino)quinoline-3,8-dicarbonitrile] were, in that order, 9 nM and 154 nM.
The like results for `Cc1nc(F)ccc1[C@H](Nc1cc(C#N)c2ncc(C#N)c(NCC(C)(C)C)c2c1)c1cn(C2(C3CC3)CC2)nn1` [Example 621, (S)-6-(((1-([1,1′-bi(cyclopropan)]-1-yl)-1H-1,2,3-triazol-4-yl)(6-fluoro-2-methylpyridin-3-yl)methyl)amino)-4-(neopentylamino)quinoline-3,8-dicarbonitrile] were, in that order, 1 nM and 12 nM.
On to `Cc1ncccc1[C@H](Nc1cc(Cl)c2ncc(C#N)c(Nc3cccc(Cl)c3)c2c1)c1cn(C(C)C)nn1` [Example 225, (S)-8-chloro-4-((3-chlorophenyl)amino)-6-(((1-isopropyl-1H-1,2,3-triazol-4-yl)(2-methylpyridin-3-yl)methyl)amino)quinoline-3-carbonitrile], for which the IC50 against Human Cot (setting [3]) came out at 10 nM. Also, in the assay on TNFα (setting [4]), the EC50 was found to be 1490 nM.
For `CC[C@@H](Nc1c(C#N)cnc2c(Cl)cc(N[C@@H](c3cccnc3)c3cn(CC#N)nn3)cc12)c1ccccc1` [Example 175, 8-chloro-6-(((S)-(1-(cyanomethyl)-1H-1,2,3-triazol-4-yl)(pyridin-3-yl)methyl)amino)-4-(((R)-1-phenylpropyl)amino)quinoline-3-carbonitrile] the same measures were 3 nM and 73 nM.
For `N#Cc1cnc2c(Cl)cc(N[C@@H](c3cccnc3)c3cn(-c4ccccc4)nn3)cc2c1Nc1cnc(F)c(F)c1` [Example 160, (S)-8-chloro-4-((5,6-difluoropyridin-3-yl)amino)-6-(((1-phenyl-1H-1,2,3-triazol-4-yl)(pyridin-3-yl)methyl)amino)quinoline-3-carbonitrile] the same measures were 11 nM and 484 nM.
For `Cc1ncsc1[C@H](Nc1cc(Cl)c2ncc(C#N)c(Nc3ccc(Cl)c(Cl)c3F)c2c1)c1c[nH]nn1` [Example 234, (R)-8-chloro-4-((3,4-dichloro-2-fluorophenyl)amino)-6-(((4-methylthiazol-5-yl)(1H-1,2,3-triazol-4-yl)methyl)amino)quinoline-3-carbonitrile] the same measures were 21 nM and 504 nM.
Compound `Cc1nc(F)ccc1[C@H](Nc1cc(C#N)c2ncc(C#N)c(NCC(C)(C)C)c2c1)c1cn(C2(C)COC2)nn1` [Example 852, (S)-6-(((6-fluoro-2-methylpyridin-3-yl)(1-(3-methyloxetan-3-yl)-1H-1,2,3-triazol-4-yl)methyl)amino)-4-(neopentylamino)quinoline-3,8-dicarbonitrile] registered an IC50 at Human Cot (setting [1]) of 2 nM. For the same compound, the EC50 with TNFα (setting [2]) was found to be 58 nM.
`Cc1nc(F)ccc1[C@H](Nc1cc(Cl)c2ncc(C#N)c(NCC(C)(C)c3ccccc3)c2c1)c1cn(C2(C(F)(F)F)CC2)nn1` [Example 612, (S)-8-chloro-6-(((6-fluoro-2-methylpyridin-3-yl)(1-(1-(trifluoromethyl)cyclopropyl)-1H-1,2,3-triazol-4-yl)methyl)amino)-4-((2-methyl-2-phenylpropyl)amino)quinoline-3-carbonitrile]: at Human Cot (setting [3]), the IC50 is 11 nM. Moreover, the EC50 in the assay with TNFα (setting [4]) worked out at 171 nM.
The like results for `CC(=O)c1cc(N[C@H](c2cn(C3(C(F)(F)F)CC3)nn2)c2cccc3ncsc23)cc2c(NCC(C)(C)C)c(C#N)cnc12` [Example 453, (S)-8-acetyl-6-((benzo[d]thiazol-7-yl(1-(1-(trifluoromethyl)cyclopropyl)-1H-1,2,3-triazol-4-yl)methyl)amino)-4-(neopentylamino)quinoline-3-carbonitrile] were, in that order, 9 nM and 184 nM.
For `Cc1ncccc1[C@H](Nc1cc(Cl)c2ncc(C#N)c(Nc3ccc(Cl)c(Cl)c3F)c2c1)c1c[nH]nn1` [Example 227, (S)-8-chloro-4-((3,4-dichloro-2-fluorophenyl)amino)-6-(((2-methylpyridin-3-yl)(1H-1,2,3-triazol-4-yl)methyl)amino)-quinoline-3-carbonitrile] the same measures were 44 nM and 6420 nM.
The compound `Cc1nc(F)ccc1[C@H](Nc1cc(C#N)c2ncc(C#N)c(NCC(C)(C)C(F)(F)F)c2c1)c1cn(C23CC(C2)C3)nn1` [Example 833, (S)-6-(((1-(bicyclo[1.1.1]pentan-1-yl)-1H-1,2,3-triazol-4-yl)(6-fluoro-2-methylpyridin-3-yl)methyl)amino)-4-((3,3,3-trifluoro-2,2-dimethylpropyl)amino)quinoline-3,8-dicarbonitrile] showed an IC50 at Human Cot (setting [1]) of 2 nM. Further, the EC50 with TNFα (setting [2]) stood at 22 nM.
For `COc1cc(N[C@H](c2cn(C3(C(F)(F)F)CC3)nn2)c2ccc(F)nc2C)cc2c(NCC(C)(C)C)c(C#N)cnc12` [Example 595, (S)-6-(((6-fluoro-2-methylpyridin-3-yl)(1-(1-(trifluoromethyl)cyclopropyl)-1H-1,2,3-triazol-4-yl)methyl)amino)-8-methoxy-4-(neopentylamino)quinoline-3-carbonitrile], the IC50 against Human Cot (setting [3]) was 209 nM. The EC50 in the assay with TNFα (setting [4]) worked out at 1000 nM.
For `Cc1nc(F)ccc1[C@H](Nc1cc(Cl)c2ncc(C#N)c(N[C@@H]3CCOC3(C)C)c2c1)c1cn(C2(C(F)F)CC2)nn1` [Example 515, 8-chloro-6-(((S)-(1-(1-(difluoromethyl)-cyclopropyl)-1H-1,2,3-triazol-4-yl)(6-fluoro-2-methylpyridin-3-yl)methyl)amino)-4-(((R)-2,2-dimethyltetrahydro-furan-3-yl)amino)quinoline-3-carbonitrile] the same measures were 199 nM and 1000 nM.
The like results for `[2H][C@](Nc1cc(Cl)c2ncc(C#N)c(Nc3cnc(F)c(F)c3)c2c1)(c1ccc(F)nc1)c1cn(C2CC2)nn1` [Example 140, (S)-8-chloro-6-(((1-cyclopropyl-1H-1,2,3-triazol-4-yl)(6-fluoropyridin-3-yl)methyl-d)amino)-4-((5,6-difluoropyridin-3-yl)amino)quinoline-3-carbonitrile] were, in that order, 3 nM and 183 nM.
The like results for `CC(C)(C)CNc1c(C#N)cnc2c(C#N)cc(N[C@H](c3cn(C4(C(F)F)CC4)nn3)c3cccc4ncccc34)cc12` [Example 550, (S)-6-(((1-(1-(difluoromethyl)cyclopropyl)-1H-1,2,3-triazol-4-yl)(quinolin-5-yl)methyl)amino)-4-(neopentylamino)-quinoline-3,8-dicarbonitrile] were, in that order, 2 nM and 29 nM.
Consider `Cc1nc(F)ccc1[C@H](Nc1cc(C#N)c2ncc(C#N)c(NCC(C)(C)C)c2c1)c1nnn(C2CC2)c1F` [Example 681, (S)-6-(((1-cyclopropyl-5-fluoro-1H-1,2,3-triazol-4-yl)(6-fluoro-2-methylpyridin-3-yl)methyl)amino)-4-(neopentylamino)quinoline-3,8-dicarbonitrile], for which, on Human Cot (setting [3]), 2 nM corresponded to half-maximal inhibition (IC50). Further, the EC50 in the assay with TNFα (setting [4]) was 26 nM.
For the compound `CC[C@@H](Nc1c(C#N)cnc2c(Cl)cc(N[C@@H](c3cccnc3)c3cn([C@H]4[C@@H]5CN(C6COC6)C[C@@H]54)nn3)cc12)c1ccccc1` [Example 174, 8-chloro-6-(((S)-(1-((1 R,5S,6s)-3-(oxetan-3-yl)-3-azabicyclo[3.1,0]hexan-6-yl)-1H-1,2,3-triazol-4-yl)(pyridin-3-yl)methyl)amino)-4-(((R)-1-phenylpropyl)amino)quinoline-3-carbonitrile], at Human Cot (read-out: IC50 HTRF, Cot HTRF (TR-FRET) biochemical assay), the IC50 was determined as 2 nM. The EC50 with TNFα (read-out: EC50 TNF, LPS-stimulated human monocytes, TNFα) came to 54 nM.
In the case of `Cc1nc(F)ccc1[C@H](Nc1cc(Cl)c2ncc(C#N)c(NCC(C)(C)CCl)c2c1)c1cn(C2(C(F)(F)F)CC2)nn1` [Example 635, (S)-8-chloro-4-((3-chloro-2,2-dimethylpropyl)amino)-6-(((6-fluoro-2-methylpyridin-3-yl)(1-(1-(trifluoromethyl)cyclopropyl)-1H-1,2,3-triazol-4-yl)methyl)amino)quinoline-3-carbonitrile], at Human Cot (setting [3]), the IC50 is 3 nM. Besides, the EC50 in the assay with TNFα (setting [4]) came to 60 nM.
The like results for `Cc1nc(F)ccc1[C@H](Nc1cc(Cl)c2ncc(C#N)c(NCC(C)(C)C)c2c1)c1nnn(C2CC2)c1Cl` [Example 662, (S)-8-chloro-6-(((5-chloro-1-cyclopropyl-1H-1,2,3-triazol-4-yl)(6-fluoro-2-methylpyridin-3-yl)methyl)amino)-4-(neopentylamino)quinoline-3-carbonitrile] were, in that order, 6 nM and 335 nM.
